Values of other authors as cited in patent US20250161199A1, “FORMULATION FOR TREATING AND PREVENTING HAIR LOSS” (DR. BARR - MEDICINE AS ART LTD, priority 2023, published 2025).

Test system: androgenic alopecia
Details: in vivo

| SMILES | time until effect becomes apparent |
| --- | --- |
| CC(C)(C)NC(=O)[C@H]1CC[C@H]2[C@@H]3CC[C@H]4NC(=O)C=C[C@]4(C)[C@H]3CC[C@]12C [finasteride] | only after several months of treatment |
| C[C@]12C=CC(=O)N[C@@H]1CC[C@@H]1[C@@H]2CC[C@]2(C)[C@@H](C(=O)Nc3cc(C(F)(F)F)ccc3C(F)(F)F)CC[C@@H]12 [dutasteride] | only after several months of treatment |
